{"source": "paper PMC9386018", "about": "“A lymphatic-absorbed multi-targeted kinase inhibitor for myelofibrosis therapy” (Nature Communications, 2022)", "key": {"[1]": {"assay": "Bioavailability studies: recovery in feces and urine", "assay_type": "in vivo, mouse", "details": "for LP-182 Recovered (mg) Feces / LP-182 Recovered (mg) Urine / Fa: individual replicates; for Fa: from Feces, read-out: LP-182 Bioavailability (%)", "method": "Seven groups of female CD-1 mice (n = 4 per dosing group) received a single oral dose of LP-182 at 0, 100, 200, 400, 600, 800 and 1000 mg kg^−1 solubilized in Maisine CC. […] Urine and fecal samples were collected over 24 h at 24, 48 and 72 h intervals using metabolic cages, and quantitation of LP-182 in each sample was determined by the University of Michigan Pharmacokinetics Core. Briefly, water was added to fecal samples at an average ratio of 2.5 ± 1.6 (w/w) water:feces to generate fecal homogenates using a tissue homogenizer (Omni International TH), then approximately 200 mg of homogenate was diluted 5-fold with 20% (v/v) acetonitrile in water prior to analysis. […] The cumulative amount of compound recovered over 72 h in feces and urine was determined from sample analyte concentrations provided by the core, then converted to percent recovered by normalization to the amount of compound administered. […] LP-182 dose (mg kg^−1):LP-182 administered (mg) is 100:2.7; 200:5.4; 400:10.8; 600:16.2; 800:21.6; 1000:27.0. Data was generated from n = 4 individual animals per compound dose."}, "[2]": {"tested_on": "ERK1/2 and pERK1/2 (pT202/pY204) in bone marrow", "assay": "MPL^W515L MF mouse model: ERK1/2 and pERK1/2 immunoblot of bone marrow", "assay_type": "in vivo", "details": "MPL^W515L mice, oral 400 mg kg^−1 daily, 28 d", "method": "(§1) Generation of the MPL^W515L mutant MF mouse model was similar to previously described methods. Briefly, female donor BALB/c mice were treated with 5-fluorouracil at 150 mg kg^−1 intraperitoneal for 5 d before harvesting bone marrow. Hematopoietic stem and progenitor cells were enriched with CD117 magnetic beads (Miltenyi Biotec), transduced with retrovirus containing MSCV-hMPL W515L-IRES-GFP, then 50,000 transduced HSPCs along with 300,000 total non-stem cells were injected intravenously into lethally irradiated female BALB/c recipients. Development of MF was evaluated by spleen volumes using MRI beginning ~14 d following bone marrow transplantation (BMT) as outlined below, continuing weekly until end of the study. Mice were separated into equal groups based on spleen size ~14–21 d post-BMT, then treated with vehicle (Maisine CC) or LP-182 at 400 mg kg^−1 daily by oral gavage for 14–28 d or until mice were euthanized using guidelines for end stage illness and humane endpoints. Untreated healthy control animals were used for experimental comparisons. […] Soluble protein extracts were isolated by centrifugation at 15,000 x g for 15 min at 4 °C, quantified using Micro BCA protein assay (Thermo Scientific), then mixed with reducing 6X SDS-PAGE loading dye, heated for 8 min at 95 °C, and stored at −20 °C until immuno-blot analysis. […]"}, "[3]": {"tested_on": "MPL^W515L mouse model of myelofibrosis", "assay": "MPL^W515L MF mouse model: tibia bone marrow ADC by diffusion-weighted MRI", "assay_type": "in vivo", "details": "MPL^W515L mice, oral 400 mg kg^−1 daily", "method": "as §1"}}, "note": "Several values for one entry are separate records, joined by “and”; a condition that tells them apart may be missing. Identical values can stand only once. Like-named read-outs stand apart in the source and are kept apart here.", "data": [{"molecule": "O=C(NOCCOCCOCCOCCC(=O)N1CCN(c2cnc3ccc(-c4cnc(Cl)c(NS(=O)(=O)c5ccc(F)cc5)c4)cc3n2)CC1)c1ccc(F)c(F)c1Nc1ccc(I)cc1F", "note": "[LP-182, N-(2-(2-(2-(3-(4-(7-(6-chloro-5-((4-fluorophenyl)sulfonamido)pyridin-3-yl)quinoxalin-2-yl)piperazin-1-yl)-3-oxopropoxy)ethoxy)ethoxy)ethoxy)-3,4-difluoro-2-((2-fluoro-4-iodophenyl)amino)benzamide]", "values": [{"measurement": "LP-182 Recovered (mg) Feces", "setting": "[1]; Dose 100 mg/kg", "value": "0.2704 mg and 0.2192 mg and 0.3774 mg and 0.8162 mg"}, {"measurement": "LP-182 Recovered (mg) Feces", "setting": "[1]; Dose 200 mg/kg", "value": "0.8447 mg and 0.5724 mg and 1.4803 mg and 1.5068 mg"}, {"measurement": "LP-182 Recovered (mg) Feces", "setting": "[1]; Dose 400 mg/kg", "value": "1.4042 mg and 2.0055 mg and 2.0997 mg and 2.356 mg"}, {"measurement": "LP-182 Recovered (mg) Feces", "setting": "[1]; Dose 600 mg/kg", "value": "3.3135 mg and 1.6755 mg and 3.7882 mg and 2.917 mg"}, {"measurement": "LP-182 Recovered (mg) Feces", "setting": "[1]; Dose 800 mg/kg", "value": "3.1521 mg and 5.2995 mg and 6.9935 mg and 3.8874 mg"}, {"measurement": "LP-182 Recovered (mg) Feces", "setting": "[1]; Dose 1000 mg/kg", "value": "3.5565 mg and 6.4352 mg and 5.241 mg and 6.6537 mg"}, {"measurement": "LP-182 Recovered (mg) Urine", "setting": "[1]; Dose 100 mg/kg", "value": "0.001008 mg and 1.367e-05 mg and 0.0001025 mg and 0.00204 mg"}, {"measurement": "LP-182 Recovered (mg) Urine", "setting": "[1]; Dose 200 mg/kg", "value": "4.24e-05 mg and 0.0002221 mg and 5.303e-05 mg and 0.0002304 mg"}, {"measurement": "LP-182 Recovered (mg) Urine", "setting": "[1]; Dose 400 mg/kg", "value": "0.0004111 mg and 0.000386 mg and 0.0002292 mg and 0.001169 mg"}, {"measurement": "LP-182 Recovered (mg) Urine", "setting": "[1]; Dose 600 mg/kg", "value": "0.00017 mg and 0.02442 mg and 0.000379 mg and 0.001062 mg"}, {"measurement": "LP-182 Recovered (mg) Urine", "setting": "[1]; Dose 800 mg/kg", "value": "2.655e-05 mg and 0.001833 mg and 0.0008829 mg and 0.0002937 mg"}, {"measurement": "LP-182 Recovered (mg) Urine", "setting": "[1]; Dose 1000 mg/kg", "value": "0.0001091 mg and 2.205e-05 mg and 2.702e-05 mg and 0.001664 mg"}, {"measurement": "Fa", "setting": "[1]; female, CD-1, mouse, feces, oral, 200 mg/kg, Dose 200 mg/kg", "value": 84.4, "unit": "%"}, {"measurement": "Fa", "setting": "[1]; female, CD-1, mouse, feces, oral, 400 mg/kg, Dose 400 mg/kg", "value": 87, "unit": "%"}, {"measurement": "Fa", "setting": "[1]; female, CD-1, mouse, feces, oral, 600 mg/kg, Dose 600 mg/kg", "value": 79.5, "unit": "%"}, {"measurement": "Fa", "setting": "[1]; female, CD-1, mouse, feces, oral, 800 mg/kg, Dose 800 mg/kg", "value": 85.4, "unit": "%"}, {"measurement": "Fa", "setting": "[1]; female, CD-1, mouse, feces, oral, 1000 mg/kg, Dose 1000 mg/kg", "value": 86.8, "unit": "%"}, {"measurement": "dose excreted at 24 h", "setting": "[1]; female, CD-1, mouse, mice, oral, feces collected after 24 h, read-out: recovery from fecal samples, % of total recovered", "value": "~95", "unit": "%"}, {"measurement": "dose excreted at 48 h", "setting": "[1]; female, CD-1, mouse, mice, oral, feces collected after 48 h, read-out: recovery from fecal samples, % of total recovered", "value": 5, "unit": "%"}, {"measurement": "Fa", "setting": "[1]; Dose 100 mg/kg, 100 mg/kg", "value": "90% and 91.9% and 86% and 69.8%"}, {"measurement": "Fa", "setting": "[1]; Dose 200 mg/kg, 200 mg/kg", "value": "89.4% and 72.6% and 72.1%"}, {"measurement": "Fa", "setting": "[1]; Dose 400 mg/kg, 400 mg/kg", "value": "81.4% and 80.6% and 78.2%"}, {"measurement": "Fa", "setting": "[1]; Dose 600 mg/kg, 600 mg/kg", "value": "89.7% and 76.6% and 82%"}, {"measurement": "Fa", "setting": "[1]; Dose 800 mg/kg, 800 mg/kg", "value": "75.5% and 67.6% and 82%"}, {"measurement": "Fa", "setting": "[1]; Dose 1000 mg/kg, 1000 mg/kg", "value": "76.2% and 80.6% and 75.4%"}, {"measurement": "dose-independent fecal excretion (% drug recovered) of intact compound", "setting": "[1]; mice, oral 100-1000 mg kg^−1, over 72 h", "value": "approximately 20%"}, {"measurement": "amount recovered in the urine", "setting": "[1]; mice, oral, all time points (24, 48, 72 h)", "value": "negligible amounts"}, {"measurement": "oral bioavailability, lower threshold limit", "setting": "[1]; mice, difference of administered and recovered in feces over 72 h", "value": "≥ 80", "unit": "%"}, {"measurement": "levels and activation of ERK1/2 in bone marrow", "setting": "[2]", "value": "attenuate downstream MPL^W515L signal transduction"}, {"measurement": "tibia bone marrow ADC change", "setting": "[3]", "value": "variable, spatially-dependent increase in ADC values"}]}]}
